Several values for one entry are separate records, joined by “and”; a condition that tells them apart may be missing. Identical values can stand only once. Numbers after ± are expanded uncertainties.
Columns and labels:
[1] = refractive index (Na D-line) (dimensionless); conditions: 101.33 kPa, Liquid
[2] = 101 kPa, Liquid
[3] = xn = mol fraction of the nth substance listed; conditions: 101 kPa, Liquid
[4] = refractive index (Na D-line) (dimensionless); xn = mol fraction of the nth substance listed; conditions: 101 kPa, Liquid

ClC(Cl)C(Cl)Cl [1,1,2,2-tetrachloroethane]
Conditions	mass density, 298.15 K [kg/m3]	mass density, 303.15 K [kg/m3]	mass density, 308.15 K [kg/m3]	refractive index, 298.15 K	refractive index, 303.15 K	refractive index, 308.15 K	speed of sound, 298.15 K [m/s]	viscosity, 298.15 K [mPa·s]	viscosity, 303.15 K [mPa·s]	viscosity, 308.15 K [mPa·s]
[1]	–	–	–	1.4922 ± 0.0024	1.4894 ± 0.0024	1.4865 ± 0.0024	–	–	–	–
[2]	1587.8 ± 3.5	1580.6 ± 3.6	1573.3 ± 3.6	–	–	–	1153 ± 7	1.591 ± 0.049	1.471 ± 0.045	1.361 ± 0.042

C1COCCO1 [1,4-dioxane]
Conditions	mass density, 298.15 K [kg/m3]	mass density, 303.15 K [kg/m3]	mass density, 308.15 K [kg/m3]	refractive index, 298.15 K	refractive index, 303.15 K	refractive index, 308.15 K	speed of sound, 298.15 K [m/s]	viscosity, 298.15 K [mPa·s]	viscosity, 303.15 K [mPa·s]	viscosity, 308.15 K [mPa·s]
[1]	–	–	–	1.4181 ± 0.0024	1.4176 ± 0.0024	1.4141 ± 0.0024	–	–	–	–
[2]	1028.3 ± 2.1	1023.1 ± 2.2	1017.8 ± 2.2	–	–	–	1345 ± 7	1.415 ± 0.044	1.171 ± 0.1	1.068 ± 0.034

OCCCl [1-chloro-2-hydroxyethane]
Conditions	mass density, 298.15 K [kg/m3]	mass density, 303.15 K [kg/m3]	mass density, 308.15 K [kg/m3]	refractive index, 298.15 K	refractive index, 303.15 K	refractive index, 308.15 K	speed of sound, 298.15 K [m/s]	viscosity, 298.15 K [mPa·s]	viscosity, 303.15 K [mPa·s]	viscosity, 308.15 K [mPa·s]
[1]	–	–	–	1.4411 ± 0.0024	1.438 ± 0.0024	1.4326 ± 0.0024	–	–	–	–
[2]	1200.9 ± 2.5	1192.5 ± 2.6	1187.1 ± 2.7	–	–	–	1358 ± 8	3.104 ± 0.091	2.669 ± 0.079	2.347 ± 0.07

COc1ccccc1 [anisole]
Conditions	mass density, 298.15 K [kg/m3]	mass density, 303.15 K [kg/m3]	mass density, 308.15 K [kg/m3]	refractive index, 298.15 K	refractive index, 303.15 K	refractive index, 308.15 K	speed of sound, 298.15 K [m/s]	viscosity, 298.15 K [mPa·s]	viscosity, 303.15 K	viscosity, 308.15 K [mPa·s]
[1]	–	–	–	1.5148 ± 0.0024	1.5124 ± 0.0024	1.5092 ± 0.0024	–	–	–	–
[2]	988.9 ± 2	984.1 ± 2.1	979.4 ± 2.1	–	–	–	1410 ± 8	0.992 ± 0.032	0.919 ± 0.03 mPa·s and 0.918 ± 0.03 mPa·s	0.853 ± 0.028

COc1ccccc1 [anisole] + C[S+](C)[O-]
Conditions	mass density, 298.15 K [kg/m3]	mass density, 303.15 K [kg/m3]	mass density, 308.15 K [kg/m3]	refractive index, 298.15 K	refractive index, 303.15 K	refractive index, 308.15 K	speed of sound, 298.15 K [m/s]	viscosity, 298.15 K [mPa·s]	viscosity, 303.15 K [mPa·s]	viscosity, 308.15 K [mPa·s]
[3], x1 = 0.0938	1081.5 ± 2.2	1077 ± 2.3	1072.3 ± 2.4	–	–	–	1487 ± 8	1.836 ± 0.056	1.683 ± 0.051	1.529 ± 0.047
[3], x1 = 0.2016	1066.7 ± 2.2	1062.1 ± 2.3	1057.6 ± 2.3	–	–	–	1477 ± 8	1.691 ± 0.052	1.549 ± 0.048	1.407 ± 0.044
[3], x1 = 0.3025	1054.4 ± 2.2	1049.9 ± 2.2	1045.3 ± 2.3	–	–	–	1468 ± 8	1.565 ± 0.048	1.438 ± 0.045	1.31 ± 0.041
[3], x1 = 0.3987	1043.6 ± 2.1	1039.2 ± 2.2	1034.7 ± 2.3	–	–	–	1462 ± 8	1.466 ± 0.045	1.347 ± 0.042	1.228 ± 0.039
[3], x1 = 0.5074	1032.5 ± 2.1	1027.9 ± 2.2	1023.6 ± 2.3	–	–	–	1454 ± 8	1.369 ± 0.043	1.268 ± 0.04	1.166 ± 0.037
[3], x1 = 0.594	1024.1 ± 2.1	1019.7 ± 2.2	1015.1 ± 2.2	–	–	–	1445 ± 8	1.318 ± 0.041	1.219 ± 0.038	1.119 ± 0.036
[3], x1 = 0.6956	1014.7 ± 2.1	1010.3 ± 2.1	1005.7 ± 2.2	–	–	–	1437 ± 8	1.249 ± 0.039	1.152 ± 0.037	1.054 ± 0.034
[3], x1 = 0.7988	1005.5 ± 2	1001.4 ± 2.1	996.7 ± 2.2	–	–	–	1428 ± 8	1.157 ± 0.037	1.073 ± 0.034	0.989 ± 0.032
[3], x1 = 0.8933	997.4 ± 2	992.8 ± 2.1	988.5 ± 2.2	–	–	–	1421 ± 8	1.077 ± 0.034	1.004 ± 0.032	0.931 ± 0.03
[3], x1 = 1	988.9 ± 2	984.1 ± 2.1	979.4 ± 2.1	–	–	–	1410 ± 8	0.992 ± 0.032	0.919 ± 0.03	0.853 ± 0.028
[4], x1 = 0.0938	–	–	–	1.4817 ± 0.0064	1.4772 ± 0.0064	1.4727 ± 0.0064	–	–	–	–
[4], x1 = 0.2016	–	–	–	1.4878 ± 0.0064	1.4853 ± 0.0064	1.4828 ± 0.0064	–	–	–	–
[4], x1 = 0.3025	–	–	–	1.4929 ± 0.0064	1.4901 ± 0.0064	1.4873 ± 0.0064	–	–	–	–
[4], x1 = 0.3987	–	–	–	1.4962 ± 0.0064	1.4935 ± 0.0064	1.4906 ± 0.0064	–	–	–	–
[4], x1 = 0.5074	–	–	–	1.4996 ± 0.0064	1.4974 ± 0.0064	1.4952 ± 0.0064	–	–	–	–
[4], x1 = 0.594	–	–	–	1.5031 ± 0.0064	1.5006 ± 0.0064	1.498 ± 0.0064	–	–	–	–
[4], x1 = 0.6956	–	–	–	1.5069 ± 0.0064	1.5043 ± 0.0064	1.5017 ± 0.0064	–	–	–	–
[4], x1 = 0.7988	–	–	–	1.5105 ± 0.0064	1.5075 ± 0.0064	1.5046 ± 0.0064	–	–	–	–
[4], x1 = 0.8933	–	–	–	1.5124 ± 0.0064	1.5096 ± 0.0064	1.5069 ± 0.0064	–	–	–	–
[4], x1 = 1	–	–	–	1.5148 ± 0.0064	1.5124 ± 0.0064	1.5092 ± 0.0064	–	–	–	–

COc1ccccc1 [anisole] + ClC(Cl)=C(Cl)Cl
x1 = 1
Conditions	mass density, 298.15 K [kg/m3]	mass density, 303.15 K [kg/m3]	mass density, 308.15 K [kg/m3]	refractive index, 298.15 K	refractive index, 303.15 K	refractive index, 308.15 K	speed of sound, 298.15 K [m/s]	viscosity, 298.15 K [mPa·s]	viscosity, 303.15 K [mPa·s]	viscosity, 308.15 K [mPa·s]
[3]	988.9 ± 2	984.1 ± 2.1	979.4 ± 2.1	–	–	–	1410 ± 8	0.992 ± 0.032	0.919 ± 0.03	0.853 ± 0.028
[4]	–	–	–	1.5148 ± 0.0024	1.5124 ± 0.0024	1.5092 ± 0.0024	–	–	–	–

COc1ccccc1 [anisole] + ClC(Cl)C(Cl)Cl
x1 = 1
Conditions	mass density, 298.15 K [kg/m3]	mass density, 303.15 K [kg/m3]	mass density, 308.15 K [kg/m3]	refractive index, 298.15 K	refractive index, 303.15 K	refractive index, 308.15 K	speed of sound, 298.15 K [m/s]	viscosity, 298.15 K [mPa·s]	viscosity, 303.15 K [mPa·s]	viscosity, 308.15 K [mPa·s]
[3]	988.9 ± 2	984.1 ± 2.1	979.4 ± 2.1	–	–	–	1410 ± 8	0.992 ± 0.032	0.919 ± 0.03	0.853 ± 0.028
[4]	–	–	–	1.5148 ± 0.0024	1.5124 ± 0.0024	1.5092 ± 0.0024	–	–	–	–

COc1ccccc1 [anisole] + OCCCl
x1 = 1
Conditions	mass density, 298.15 K [kg/m3]	mass density, 303.15 K [kg/m3]	mass density, 308.15 K [kg/m3]	refractive index, 298.15 K	refractive index, 303.15 K	refractive index, 308.15 K	speed of sound, 298.15 K [m/s]	viscosity, 298.15 K [mPa·s]	viscosity, 303.15 K [mPa·s]	viscosity, 308.15 K [mPa·s]
[3]	988.9 ± 2	984.1 ± 2.1	979.4 ± 2.1	–	–	–	1410 ± 8	0.992 ± 0.032	0.919 ± 0.03	0.853 ± 0.028
[4]	–	–	–	1.5148 ± 0.0024	1.5124 ± 0.0024	1.5092 ± 0.0024	–	–	–	–

CCOC(=O)C(=O)OCC [diethyl ethanedioate]
Conditions	mass density, 298.15 K [kg/m3]	mass density, 303.15 K [kg/m3]	mass density, 308.15 K [kg/m3]	refractive index, 298.15 K	refractive index, 303.15 K	refractive index, 308.15 K	speed of sound, 298.15 K [m/s]	viscosity, 298.15 K [mPa·s]	viscosity, 303.15 K [mPa·s]	viscosity, 308.15 K [mPa·s]
[1]	–	–	–	1.4084 ± 0.0024	1.4061 ± 0.0024	1.4039 ± 0.0024	–	–	–	–
[2]	1072.3 ± 2.2	1066.6 ± 2.3	1060.7 ± 2.4	–	–	–	1267 ± 7	1.844 ± 0.056	1.659 ± 0.051	1.508 ± 0.046
